The results in this text go back to patent US5204475A, “Substituted 3-aminosydnone imines and salts thereof” (Cassella Aktiengesellschaft, priority 1990, dated 1993).

SMILES strings stand for the structures. pIC50: −log10 of the molar value.

In this assay the test system is spiral strips of the pulmonary artery of the guinea-pig. Briefly: Relaxation of potassium-depolarised, CaCl2-contracted spiral strips of the pulmonary artery of the guinea-pig (modified method of Godfraind and Kaba and of Schuman et al.). The settings on record: depolarised with 40 mmol/1 potassium, contraction by 0.5 mmol/1 CaCl2; for pIC50: Cavia porcellus, cumulative addition, average of 4 to 6 vessel strips, read-out: IC50 (concentration of the test substance which inhibits the contraction by 50%). How it is done:
The pharmacological action of the compounds of the formula I was determined by a modified method of Godfraind and Kaba (Arch. Int. Pharmacodyn. Ther. I96, (Suppl) 35 to 49, 1972) and of Schuman et al. (Naunyn-Schmiedeberg's Arch Pharmacol. 289, 409 to 418, 1975). In this connection, spiral strips of the pulmonary artery of the guinea-pig are depolarised with 40 mmol/1 of potassium after equilibration in calcium-free Tyrode solution. An addition of 0.5 mmol/1 of CaCl2 then induces a contraction. The relaxing action of the test substance is determined by cumulative addition in 1/2 log 10 stepped concentrations. From the concentration-effect curve (abscissa: -log mol/1 of test substance, ordinate: % inhibition of the maximum contraction, average value of 4 to 6 vessel strips), the concentration of the test substance is determined which inhibits the contraction by 50% (=IC50, mol/1). The duration of action of the test substance is given by the time which is needed after the addition of the test substance until the starting value is obtained again.

On to `Cl.N=c1c[n+](N2CCCCC2C(=O)O)[n-]o1` (stereo not drawn) [Example 1, 3-(2-Carboxypiperidino)sydnone imine hydrochloride], for which the pIC50 was 5.22 and the “Duration of action in minutes (time needed after addition of the test substance until the starting value is obtained again)” value (shortened to “Duration of action in minutes”) is greater than 300 min.

Take `Cl.N=c1c[n+](N2CCC(C(=O)O)CC2)[n-]o1` [Example 2, 3-(4-Carboxypiperidino)sydnone imine hydrochloride]: the pIC50 is 4.62 and the “Duration of action in minutes” value was greater than 300 min.

In the case of `Cl.N=c1c[n+](N2CCC[C@H]2C(=O)O)[n-]o1` [Example 3, (S)-3-(2-Carboxypyrrolidino)sydnone imine hydrochloride], the pIC50 is 4.70 and the “Duration of action in minutes” value was greater than 300 min.
